Experimental data published in PubChem BioAssay AID449762 (Southern Research Specialized Biocontainment Screening …, 2010).
pIC50: −log10 of the molar value. Results filed as inconclusive are left out. Where a SMILES comes first, the peptide text is derived from it. [ ]: non-standard residue; d: D form. The star is where a group is joined. ξ: configuration not given here. ξF = NC(Cc1ccccc1)C(=O)O; Cbz = O=C(OCc1ccccc1)*

Tested on: M. tuberculosis H37Rv growth inhibition, 7H9 media
Test: M. tuberculosis growth inhibition, HTS (AID 449762);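 also: bacterial growth assessed after seven days of incubation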
Conditions: for IC90: measured here: IC90 growth inhibition

SMILES | pIC50 | IC90 [µM]
CS(=O)(=O)c1ccc([C@@H](O)[C@@H](CF)NC(=O)C(Cl)Cl)cc1 | 5.00 | 24.7
O=C(Nc1nnc(-c2ccccc2)o1)c1cc(-c2cccs2)nc2ccccc12 | 6.05 | 2.25
C=CCSc1n[nH]c(-c2ccc(OCCCC)cc2)n1 | 4.80 | 39.2
Cc1ccc2c(c1)c1c3n2CCN=C3CCC1 | 4.99 | 19
CCOC(=O)c1ccc(N=C2S/C(=C\c3cc(C)n(-c4cccnc4)c3C)C(=O)N2C)cc1 | 4.01 | > 100
COc1ccc(C2Oc3ccccc3C3=C2C(c2cccs2)n2ncnc2N3)cc1 (stereo not drawn) | 4.29 | > 100
COc1ccc(/C(O)=C/Sc2nnc(Cc3ccccc3)o2)cc1 | 4.58 | > 100
C=CCn1cccc(/C=C/C(=O)c2ccc(C(C)(C)C)cc2)c1=S | 4.56 | 56.5
C=CCOC(=O)COc1ccc2c(C)c(CC)c(=O)oc2c1 | 5.97 | 2.21
COC(=O)C(C)Oc1cc(C)ccc1COc1ccc(-n2nc(C)n(C(F)F)c2=O)cc1 (stereo not drawn) | 4.78 | 32.9
CC1=NN(c2ccccc2)C(=O)/C1=C\c1c(C)[nH]n(-c2ccccc2)c1=O | 4.74 | 46
CCCCOc1ccc(-c2nnn(C(C)C(=O)OCC)n2)cc1 (stereo not drawn) | 6.12 | 5.42
Cc1cc(-c2ccc(Cl)cc2)c2cnn(C(C)C)c2n1 | 4.59 | 44.1
NC(N)=N/N=C/c1ccc(N(c2ccccc2)c2ccccc2)cc1 | 4.96 | 13.7
CCN(CC)CCN(C(=O)c1ccc(S(=O)(=O)N2CCCC2)cc1)c1nc2cc(C)cc(C)c2s1 | 5.00 | 13.2
C/C(=N\NC(=O)CC(C)C)c1c(C(F)(F)F)[nH]n(-c2nc3ccccc3s2)c1=O | 4.37 | > 100
COc1ccc(-c2c(-c3cc(OC)cc(OC)c3)n(C)c3ccc(-c4ccn[nH]4)cc23)cc1 | – | > 100
Cc1cc2cc(CNC(=O)NC3CCCCC3)ccc2[nH]1 | 4.63 | 50.9
COc1cc(/C=C/C(=O)c2c(O)n(CCc3ccccc3)c(=O)[nH]c2=O)ccc1O | 5.34 | 11.5
CC(C)(C)c1cc(-c2nc(N)nc(N)n2)c(O)c(C(C)(C)C)c1 | 4.12 | 88.9
CC(C)(C)c1ccc(C(=O)NNc2cc(N3CCCCC3)nc(N3CCCCC3)n2)cc1 | 4.22 | 74.8
COc1cc2c(-c3ccc4[nH]ccc4c3)c(-c3ccc(C#N)cc3)oc(=O)c2cc1OC | – | > 100
CNc1ccccc1C(=O)OC(C)C(=O)Nc1ccc(Cl)cn1 (stereo not drawn) | 4.55 | 51.3

SMILES | pIC50 | IC90 [µM]
O=C(/C=C/c1cccnc1)c1cccc(O)c1 | 5.19 | 14.8
Cc1cccc(N2CCN(CC(=O)Nc3nccs3)CC2)c1C | 4.80 | 58.5
CCCNc1nc(-c2cc(C(=O)Nc3ccccc3)on2)cc(C(C)C)n1 | 4.46 | 59.3
COc1ccccc1Nc1nc(N)nc(CCl)n1 | 5.78 | 8.82
COc1ccc(CNC[C@@H](CCCCN(C)Cc2ccc(OC)cc2)N2C[C@H](c3ccccc3)N(CCc3ccc(Cl)c(Cl)c3)C(=O)C2=O)cc1 | 5.26 | 8.71
Nc1nc(CN2CCN(c3ccccc3F)CC2)nc(N2CCCc3ccccc32)n1 | 5.30 | 14
CCOC1OC(=O)C(Cl)=C1Nc1ccccc1C (stereo not drawn) | 5.54 | 6.18
COc1ccccc1NC(=O)CN1CCN(CC(=O)Nc2ccc3c(c2)OCO3)CC1 | 4.83 | 33.6
CCOC(=O)[C@@H]1[C@H]2COc3cc(OC)ccc3[C@H]2N2C(=O)N(c3ccc(C(F)(F)F)cc3)C(=O)[C@]12C | 5.24 | 6.48
COc1cccc(NC(=O)C2CCN(Cc3cnn(-c4ccccc4)c3-n3cccc3)CC2)c1 | 4.31 | 56.2
O=C(c1cc(COc2ccc(F)cc2F)on1)N1CCCC(c2ccccc2)C1 (stereo not drawn) | 4.75 | 39.8
COC(OC)c1ccnc(-c2ccc(OC(=O)c3cccs3)cc2)n1 | 4.20 | > 100
COC(=O)C1=C(C)N(Cc2ccccc2)C(=NCc2cccc(Cl)c2)N[C@H]1c1ccccc1 | 4.78 | 21
CCCn1c(Nc2nc3ccccc3n2C)nc2ccccc21 | 4.08 | 88.7
CCCNC(=S)Nc1ccc(Nc2ccccc2)cc1 | 4.50 | 52
Cc1ccc(C(=O)c2oc3ccc(Cl)cc3c2NC(=O)CN2CCN(C)CC2)cc1 | 4.84 | 17.8
CC(=O)/C(=C\Nc1ccc(OCc2ccccc2)cc1)c1ccccc1 | 5.64 | 12.1
CC(C(Sc1ccccc1N)c1ccccc1)[N+](=O)[O-] (stereo not drawn) | 4.71 | > 100
CCc1c(C2(O)CCCCC2)[nH]c2ccc(C(F)(F)F)cc12 | 4.55 | > 50
CCC(=O)NC(=S)Nc1ccc(NC(=O)COc2ccc(Cl)cc2Cl)cc1 | 4.06 | > 100
CCn1c2ccccc2c2cc(CN3CCN(Cc4cc(OC)ccc4O)CC3)ccc21 | 4.78 | 23.5
O=C(Oc1ccc2ccccc2c1)c1cncc(Br)c1 | 4.89 | 60.3
COCCNC(=S)N/N=C(\C)c1ccc(OC)cc1 | 4.39 | 49.4

SMILES | pIC50 | IC90 [µM]
COc1ccc(N=c2cc(-c3ccc(O)cc3)oc3ccccc23)cc1 | 4.65 | 25.8
NN/C(=C\[N+](=O)[O-])Nc1ccc(Cl)cc1 | 4.34 | > 100
CC1=CC(=O)c2c(O)ccc(O)c2C1=O | 5.10 | 12.2
COC(=O)c1cc(/C=C/c2ccccc2)on1 | 4.77 | > 100
Oc1ccccc1-c1nnc(COc2ccccc2)o1 | 5.12 | 34.7
NC(=S)N/N=C/c1ccccc1OCCSc1ccc(Cl)cc1 | 4.34 | > 100
CN(C(=O)COC(=O)c1ccc([N+](=O)[O-])cc1Cl)C1CCCCC1 | 4.89 | 65.6
CC(=O)Nc1ccc(N2C(C(C)=O)=NN(c3ccc(Cl)cc3)C2c2sccc2C)cc1 (stereo not drawn) | 4.08 | 93.1
CC1CCC/C(=N\NC(=S)Nc2ccccc2)C1 (stereo not drawn) | 4.36 | 67.5
CCc1ccc2nc(N3C(=O)C(O)=C(C(=O)c4ccco4)C3c3cccs3)sc2c1 (stereo not drawn) | 4.08 | 92.3
CCOC(=O)CNC(=O)C(Cc1ccccc1)NC(=O)OCc1ccccc1 (stereo not drawn) (Cbz-[ξF]-Gly-OEt) | 5.65 | 3.36
COC(=O)C1=C(C)NC(=O)/C1=C\c1cc(C)n(-c2cccc(C)c2)c1C | – | > 100
COc1cc2ccccc2cc1C(=O)Nc1ccc(Cc2ccncc2)cc1 | 5.65 | 16.8
Cc1ccc(C(c2nnnn2Cc2cccs2)N2CCN(Cc3ccc4c(c3)OCO4)CC2)cc1 (stereo not drawn) | 4.68 | 27.9
Oc1ccc(/C=N/NC(=S)N2CCOCC2)cc1 | 5.38 | 6.19
CCCCNc1nc(N(C)c2ccccc2)nc(-n2ccnc2)n1 | 4.97 | > 25
CN(C)CCCN(C(=O)c1ccc([N+](=O)[O-])s1)c1nc2cc3c(cc2s1)OCCO3 | 4.51 | 45.5
Cc1[nH]n(-c2ccccc2)c(=S)c1C=NCCCN=Cc1c(C)[nH]n(-c2ccccc2)c1=S | – | > 100
Cc1ccc(C2=NN(C)c3nc4ccccc4n3C2)cc1 | 4.69 | 78.3
COc1ccc(-c2c[n+]3c4n2CCCCC4=C(c2ccccc2)C3)cc1 | 4.45 | 43.7
CC[C@@H](C)[C@H](CN[C@H](CNC)C(C)C)NC[C@@H](C)c1ccc(CC(C)C)cc1 | 4.95 | 12.6
C=C(C)C1Cc2c(C)nn(-c3nc(C)cc(C)n3)c2C1 (stereo not drawn) | 5.57 | 6.74
CCOc1[nH]n(-c2ccccc2)c(=O)c1C=Nc1ccc(OC)cc1 | 4.44 | > 100

SMILES | pIC50 | IC90 [µM]
N#C/C(=N/Nc1ccc(OC(F)(F)F)cc1)C(N)=S | 5.67 | 3.43
COc1cccc2sc(Nc3nnc(-c4cccs4)o3)nc12 | 4.62 | 27.1
O=C1C=C(c2ccc3[nH]ccc3c2)C[C@@H](c2ccc(Cl)cc2)C1 | 4.12 | > 100
CSc1cccc(NC(=O)CCS(=O)(=O)c2cccc3nonc23)c1 | 5.76 | 7.46
O=c1c2c(-c3ccccc3)csc2ncn1/N=C/c1ccc(O)c([N+](=O)[O-])c1 | 4.87 | 52.9
CON(C)c1nc(C2CCCCC2)c2cc(C)ccc2n1 | 4.22 | 75.5
CC(=O)c1cccc2c(O)c(C3=Nc4ccccc4C3=O)[nH]c12 | 4.93 | 13.2
Oc1ccc(C[C@H]2CNCCN2CCCCC2CCCCC2)cc1 | 4.50 | 59.2
COc1ccc(C2=CC(c3c(C)nn(-c4ccccc4)c3Cl)n3nnnc3N2)cc1OC (stereo not drawn) | 4.39 | 78.9
COc1ccc(-c2cc3n(n2)CCc2nc4ccccc4n2-3)cc1 | 5.97 | 5.92
CCOc1ccc(-c2csc(/C(C#N)=C\c3ccc(O)c([N+](=O)[O-])c3)n2)cc1 | 4.95 | > 100
CC1(C)OC(=O)C(=Cc2ccc[nH]2)C(=O)O1 | > 6.70 | 24.1
CCCNC(=O)NC(=O)COc1ccc2oc3ccccc3c2c1 | – | > 100
CCC1C(c2ccccc2)N(C)C(c2ccccc2)CC1(O)c1ccccc1 (stereo not drawn) | 4.63 | 25.5
OC(CN1CCN(c2ccccn2)CC1)Cn1c2ccccc2c2ccccc21 (stereo not drawn) | 4.44 | 51.7
O=C(NCC1CC1)c1cc([N+](=O)[O-])cc([N+](=O)[O-])c1 | 5.24 | 6.43
Cc1cccc(N(C(=O)c2nsc(Cl)c2Cl)C(C(=O)NC2CCCC2)c2ccc(O)cc2)c1C (stereo not drawn) | 4.66 | 28.2
C/C(CC(=O)Nc1ccc2c(c1)OCCO2)=N\NC(=O)c1ccccc1F | 5.16 | > 100
CCOc1ccc(N(C(=O)/C=C/C(=O)Nc2cc(C)on2)C(C(=O)NC2CCCC2)c2ccccc2C)cc1 (stereo not drawn) | 4.18 | > 100
Cc1ccccc1CSc1nsc(N)n1 | 5.17 | 19.6
